From PMC12680549, “Impact of Seasonal Variation on Antioxidant, Enzyme Inhibitory, and Anti‐Inflammatory Potentials of Cistus creticus Leaf Extracts” (ChemistryOpen, 2025)

System: T1, urease
T1 construct: gene urea amidohydrolase; the jack bean enzyme is only a guess from the usual assay; Helicobacter pylori is named only as background
Assay: phenol-hypochlorite assay, […] nm
Assay type: biochemical, Canavalia ensiformis
Settings: 17 mM urea, 30 °C, 50 min; enzyme source not stated

**Q.** Which “Antiurease / IC50 μg mL^-1” value does the source give for `NC(N)=S` [Thiourea] here?
**A.** The value was 11.57 ± 0.68 µg/mL.
